Broadly, the melting point is the temperature of the solid-liquid transition.

In the case of `CN(C)S(=O)(=O)n1cnc(S(=O)(=O)n2nc(Cl)c3ccccc32)n1` [7-5(a), 1-(N,N-dimethylsulfamoyl)-3-(3-chloroindazol-1-yl)sulfonyl-1,2,4-triazole], the melting point is 164 to 165 °C.

`Cc1c(Cl)c(-c2ccccc2)nn1S(=O)(=O)c1ncn(S(=O)(=O)N(C)C)n1` [8-11(a), 1-(N,N-dimethylsulfamoyl)-3-(3-phenyl-4-chloro-5-methylpyrazol-1-yl)sulfonyl-1,2,4-triazole] came in with a melting point of 125 to 128 °C.

For the molecule `Cc1c(Cl)c2ccccc2n1S(=O)(=O)c1ncn(S(=O)(=O)N(C)C)n1` [1-33(a), 1-(N,N-dimethylsulfamoyl)-3-(2-methyl-3-chloroindol-1-yl)sulfonyl-1,2,4-triazole], the melting point was 120 to 122 °C.

`CN(C)S(=O)(=O)n1cnc(C(=O)c2ccc(C(F)(F)F)cc2)n1` [11-19(a), 1-dimethylsulfamoyl-3-(4-trifluoromethylbenzoyl)-1,2,4-triazole] had a melting point of 121 to 122 °C.

The values are drawn from patent publication US7067656B2, “Sulfamoyl compounds and agricultural and horticultural fungicides” (Nissan Chemical Industries, Ltd., priority 1997, dated 2006).
